Bounds are passed on as bounds.

Data on five molecules can be found in US20080153822A1, “Methods of treating pain” (priority 2006, published 2008).

For one test, the system named is CDKs. The conditions noted are these: Current Opinion in Pharmacology, 2003(3): 362-370; cited from earlier work.
The target of another test is T1, CDK9/CycT (Homo sapiens, UniProt P50750).
T1 construct: host or cells: Sf9 insect cells, baculovirus
The experiment in a line: In vitro kinase inhibition assay. In kind it is biochemical. The following applies: 1 μM ATP, 33P FlashPlate assay. As for the experimental part:
IC50 profiles of the compounds according to general Formula I or Ia of the present invention can be determined for cyclin-dependent kinases CDK2/CycA, CDK4/CycD1, CDK6/CycD1 and CDK9/CycT in enzymatic kinase inhibition assays in vitro. IC50 values as obtained in these assays are used for evaluating the specific selectivity and potency of the compounds with respect to CDK9 inhibition.
Compounds are used as 1×10^−2 M stock solutions in 100% DMSO, 100 μl each in column 2 of three 96-well V-shaped microtiterplates (in the following, said plates are referred to as “master plates”). […]
For the determination of inhibitory profiles, the following 4 protein kinases are used: CDK2/CycA, CDK4/CycD1, CDK6/CycD1 and CDK9/CycT. […] The purity of each kinase is determined by SDS-PAGE/silver staining and the identity of each kinase is verified by western blot analysis with kinase specific antibodies or by mass spectroscopy. […]
Reaction mixtures are incubated at 30° C. for 80 minutes. […] Incorporation of ^33P is determined with a microplate scintillation counter (Microbeta, Wallac).
The median value of the counts in column 1 (n=8) of each assay plate is defined as “low control”. This value reflects unspecific binding of radioactivity to the plate in the absence of a protein kinase but in the presence of the substrate. […]

Another test has as its system TNFα. The experiment in a line: LPS in vivo assay (model of cytokine repression in vivo). On the set-up: species or system mice. The following applies: 30 mg/kg single p.o. dose 30 min prior to LPS; blood serum 90 min after LPS; ELISA; FIG. 3. As for the experimental part:
For the LPS induced model of septic shock, mice receive an intraperitoneal (i.p.) injection of 30 μg bacterial Lipopolysaccharide (LPS; L2630 SIGMA) in saline. Said LPS-mediated initiation of the inflammatory signalling cascade results in increasing blood serum concentrations of cytokines such as e.g. TNFα, IL-6 and IL1β. Blood can be taken from these animals at defined time points. Thereafter, serum will be separated and the samples can be stored at −80° C. until cytokine concentrations are measured using commercial ELISA assays. (A L Moreira et al., Braz J Med Biol Res 1997; 30:1199-1207).
Wildtype mice (strain C3HeB/FeJ) (age, sex and weight matched) were injected with 30 μg LPS (SIGMA) intraperitoneally. 90 minutes after LPS administration, these animals were anaesthetized with 0.1 ml/10 g bodyweight Ketamine-Rompun (50/20 mg/ml) and blood for serum preparation was taken via cardiac puncture.
Pharmacological treatment groups (n=4) of LPS mice received per os (p.o.) injections of CDK-inhibiting compounds or the vehicle (negative control), respectively. […]
Serum concentrations of TNF alpha and IL6 within the samples were measured by using commercial ELISA Kits (Natutec) according to the manufacturers instructions. […]
A general note: An ELISA detects its analyte on a solid surface through an enzyme-linked reagent.

The subject of test [1] is LPS induced THP-1 macrophages. The test can be described thus: In vitro THP-1 assay (LPS-induced cytokine expression). Format: cell-based, human. The protocol:
The human THP-1 cell line can be utilized as an in vitro model of cytokine expression as mediated by Lipopolysaccharide (LPS) or Tumor Necrosis Factorα [TNFα].
Monocytic THP-1 cells (ATCC; TIB-202) can be differentiated into macrophage-like cells expressing pro-inflammatory cytokines like TNFα, IL6 and IL10 upon induction with LPS or by TNFα (autocrine induction) itself.
THP-1 cells are grown in modified RPMI-1640 medium (ATCC, Cat. No. 30-2001) supplemented with 10% FCS and 1% Pen/Strep. For cytokine inhibition assays, cells are seeded at a density of 5×10^5 cells/ml into 6-well plates in standard growth medium supplemented with 100 ng/ml PMA (Sigma, P1585) to induce differentiation into macrophage-like cells. After 24 hours, the medium is replaced with standard growth medium (without PMA) and the cells are incubated for another 48 hours to complete differentiation.
After 72 h of differentiation, the medium is replaced with serum free growth medium, and CDK-inhibiting compounds as well as reference compounds such as positive and negative controls, each dissolved in DMSO are added at concentrations ranging from 0.5 to 5 μM (final concentration of DMSO in the well is 0.1%). Cells are incubated for 60 min with compounds prior to stimulation with 100 ng/ml LPS (Sigma, L2630) for another 4-48 hours. Supernatants are collected and assayed immediately for cytokine expression, e.g. for TNFα, IL-6 and IL-1β using commercially available sandwich ELISA assays (eBioscience, Cat. No 88-7346, 88-7066, 88-7010) or kept frozen at […] until evaluation.
Concentrations of TNFα, IL6 and IL1β within the cell culture supernatants are measured by using commercial ELISA Kits (eBioscience) according to the manufacturer's instructions.
Compound #133 was administered to differentiated THP-1 cells in triplicates as described above (see section 2.). After 60 min of pre-incubation with test or reference compound (a p38 inhibitor and an IKK-inhibitor, respectively) alone, cells were stimulated with LPS. […]

For the next test, the system named is TNF α. The test can be described thus: In vitro human whole blood assay (cytokine inhibition). In kind it is cell-based. The following applies: for TNF α levels reduced: human whole blood. The protocol:
[…]. For this purpose, human heparinised whole blood from healthy donors was diluted 1:5 with medium (RPMI 1640, e.g. ATCC #30-2001, supplemented with 4.5 g/L glucose, 4 mM L-glutamine, pyruvate, 1250 U sodium-heparin and 1% Penicillin/Streptomycin), incubated with the anti-inflammatory compound or solvent for 30-60 minutes and then stimulated with 20 ng/ml to 1 μg/ml LPS or SEB for 3 to 48 hours. Supernatants were harvested and analysed for cytokine content, e.g. by ELISA.

T1 sequence (P50750 whole entry): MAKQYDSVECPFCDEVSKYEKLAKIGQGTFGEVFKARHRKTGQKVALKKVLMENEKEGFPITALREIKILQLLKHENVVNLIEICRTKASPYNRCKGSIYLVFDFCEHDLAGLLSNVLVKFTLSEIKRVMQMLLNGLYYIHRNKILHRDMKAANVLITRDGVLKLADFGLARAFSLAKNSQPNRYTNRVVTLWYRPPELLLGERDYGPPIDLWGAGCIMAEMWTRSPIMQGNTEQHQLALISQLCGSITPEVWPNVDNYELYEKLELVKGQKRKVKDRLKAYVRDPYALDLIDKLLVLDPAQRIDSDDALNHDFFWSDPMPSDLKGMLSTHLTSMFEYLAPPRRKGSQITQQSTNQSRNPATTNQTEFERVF
T1 sequence (O60563 whole entry partner): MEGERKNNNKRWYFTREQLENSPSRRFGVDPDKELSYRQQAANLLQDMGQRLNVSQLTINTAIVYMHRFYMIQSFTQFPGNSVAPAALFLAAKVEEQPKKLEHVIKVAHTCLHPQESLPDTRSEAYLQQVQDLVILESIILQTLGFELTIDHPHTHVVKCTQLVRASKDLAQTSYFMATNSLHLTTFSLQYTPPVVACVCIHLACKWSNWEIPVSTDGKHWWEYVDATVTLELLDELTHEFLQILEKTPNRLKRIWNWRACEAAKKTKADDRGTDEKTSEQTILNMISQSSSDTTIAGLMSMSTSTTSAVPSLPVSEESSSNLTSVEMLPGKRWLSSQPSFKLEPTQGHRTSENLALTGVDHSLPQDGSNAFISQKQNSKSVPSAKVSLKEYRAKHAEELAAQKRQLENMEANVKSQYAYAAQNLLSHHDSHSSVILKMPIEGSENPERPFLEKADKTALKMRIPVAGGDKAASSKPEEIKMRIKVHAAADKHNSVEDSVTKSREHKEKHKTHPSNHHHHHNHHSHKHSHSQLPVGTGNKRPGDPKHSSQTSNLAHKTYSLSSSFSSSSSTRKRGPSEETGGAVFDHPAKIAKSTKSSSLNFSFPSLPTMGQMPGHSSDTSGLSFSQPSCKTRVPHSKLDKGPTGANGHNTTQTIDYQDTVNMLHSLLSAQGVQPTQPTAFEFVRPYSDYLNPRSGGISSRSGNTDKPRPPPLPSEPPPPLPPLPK

On to `CN1CC[C@H](c2c(O)cc(O)c3c(=O)cc(-c4ccccc4Cl)oc23)[C@H](O)C1` [Flavopiridol], for which the “selectivity for a specific CDK” value in the test with CDKs was “not particularly selective for a specific CDK”.
For `CCn1cnc2c(Nc3cccc(Cl)c3)nc(N[C@@H]3CCCC[C@@H]3N)nc21` [CGP74514A], in the test with CDKs, the “inhibitory activity against CDKs 4 and 6” value is “no inhibitory activity”; the “selectivity for a specific CDK” value was “greater selectivity for CDKs 1, 2 and 5”.
Take `COc1ccccc1-c1ccnc(Nc2cccc(S(C)(=O)=O)c2)n1` [Compound #133]: the IC50 (as a rule, the concentration needed to halve the response being measured) against CDK9/CycT is 37.6 nM; in the test with TNF α (Homo sapiens, deduced from the % reduction data), below 3000 nM. Moreover, the “reduction of LPS-induced TNFα level (signalα signal) compared to the DMSO vehicle control” value with TNFα was 50%. Moreover, the “signalα signal compared to the DMSO (vehicle control)” value in test [1] (at each concentration, FIG. 4) was “significantly reduced”. Also, the “effect on TNFα and IL6 protein concentration in the cell supernatant versus vehicle (DMSO)” value in test [1] (differentiated THP-1 cells, 60 min pre-incubation, LPS 4-48 h) is “significant inhibitory effect”. Besides, the “reduction of LPS-induced cytokine levels (TNFα, IL6, IL1β)” value in test [1] (differentiated THP-1 cells, LPS 100 ng/ml, supernatant ELISA, FIG. 4) is given as “up to 100%”. The “TNF α levels reduced” value with TNF α (0.3 μM) is 15%; in the test with TNF α (3 μM), 60%; in the test with TNF α (10 μM) it was 85%; in the test on TNF α (30 μM), 94%.
For purvanolols, in the test on CDKs, the “inhibitory activity against CDKs 4 and 6” value is “no inhibitory activity”; the “selectivity for a specific CDK” value is “greater selectivity for CDKs 1, 2 and 5”.
With `CC[C@H](CO)Nc1nc(NCc2ccccc2)c2ncn(C(C)C)c2n1` [roscovitine], in the test on CDKs, the “inhibitory activity against CDKs 4 and 6” value is recorded as “no inhibitory activity”; the “selectivity for a specific CDK” value is “greater selectivity for CDKs 1, 2 and 5”.
